Measured values taken from the NIST ThermoML archive (doi:10.1016/j.fluid.2010.03.010).
“And” between values parts separate entries of the source, which are not always exact repeats. Identical values can stand only once.

Assay: xn = mol fraction of the nth substance listed
Settings: 298.03 K, 101.3 kPa, Liquid, Taylor dispersion method

Row | binary diffusion coefficient (x1 = 0) | Structure (SMILES) | binary diffusion coefficient (x2 = 0)
1 |  | CCCCn1cc[n+](C)c1.N#CN=C=[N-] [1-butyl-3-methylimidazolium dicyanamide] + O | 2.08e-08 m2/s and 2.13e-08 m2/s and 2.11e-08 m2/s and 2.03e-08 m2/s and 1.98e-08 m2/s and 2.05e-08 m2/s and 2e-08 m2/s and 2.28e-08 m2/s
2 |  | CCCC[n+]1ccn(C)c1.O=S(=O)([N-]S(=O)(=O)C(F)(F)F)C(F)(F)F + O | 4e-08 m2/s [middle of 4 runs]
3 | 9.62e-08 m2/s and 9.15e-08 m2/s and 9.84e-08 m2/s and 9.79e-08 m2/s | CCOS(=O)(=O)[O-].CCn1cc[n+](C)c1 [1-ethyl-3-methylimidazolium ethyl sulfate] + O | 
